In assay [1] the test system is lipid peroxidation (LPO) of rat brain homogenate. Description: Lipid peroxidation (LPO) of rat brain homogenate, TBARS test. The note with it: substances at 100 μM, mean ± SEM; for % of Activity, Inhibition of LPO, Fe (II): Fe (II)-induced; for % of Activity, Inhibition of LPO, t-BHP: t-BHP-induced. In kind it is biochemical. As for the experimental part:
To obtain the brain homogenate, rats preliminarily anesthetized with CO2 were decapitated with a guillotine. The brain was homogenized in a buffer containing KCl (120 mM) and HEPES (20 mM), pH = 7.4 at 4 °C, and centrifuged at 1500 rpm to obtain a supernatant. The protein was quantified according to the standard microbiuret method.
To investigate the effect of the compounds on lipid peroxidation (LPO) of rat brain homogenate, we used the modified version of the TBARS test, which is based on the reaction of 2-thiobarbituric acid with the end LPO product—malonic dialdehyde (MDA). The plate well, according to the experimental scheme, contained the compounds under study (100 μM), rat brain homogenate (2 mg/mL), as well as ferrous iron ions ([…]) at a concentration of 500 μM and 1.6 mM tert-butyl hydroxyperoxide as an initiator. After 30 min of incubation at 37 °C, TBARS reagent was added to all samples, incubated for 90 min at 90 °C, and centrifuged at 6000 rpm for 15 min. The optical density of the selected supernatant was measured on a Victor 3 plate reader (Perkin Elmer) at λ = 540 nm.
A rat brain homogenate preparation containing fragments of cell membranes was used as a model system to investigate the antioxidant activity of the hydroxamic acids. To initiate the process of lipid peroxidation, ferrous ions were used to trigger the Fenton reaction, during which the iron valence changes and a highly reactive hydroxyl radical is formed, and tert-butyl hydroxyperoxide as a direct source of free radicals.

The next assay relates to β-amyloid 1–40. Description: β-amyloid 1–40 aggregation, Thioflavin T fluorescence. In kind it is biochemical. The note with it: 100 μM, 72 h incubation. On the procedure: (§1) The effect of the studied compounds on the aggregation of β-amyloid (1–40/1–42) was analyzed using the method of recording Thioflavin T fluorescence (10 µM) for 72 h at 37 °C. The fluorescence signal was measured using a multifunctional flatbed analyzer, the Cytation ™ 3 (BioTek Instruments, Inc., Winooski, VT, USA), at λex = 450 nm, λem = 480 nm.
(§2) The effect of hydroxamic acids on the stage of aggregation of the pathological β-amyloid peptide was investigated for 72 h using two model systems—fragments Aβ1–40 and Aβ1–42. The fluorophore Thioflavin T was used as an indicator of the ongoing fibrillation process, the interaction of which with proteins in the state of amyloid fibrils leads to an increase in the fluorescence signal.

The next assay relates to T1, β-amyloid 1–42.
T1 construct: fragments Aβ1–40 and Aβ1–42
Briefly: β-amyloid 1–42 aggregation, Thioflavin T fluorescence. In kind it is biochemical. The note with it: 100 μM, 72 h incubation. On the procedure: as §1, §2

In the next assay the test system is HEK 293 cells. Description: MTT cell viability, HEK 293. In kind it is cell-based. The note with it: Homo sapiens, HEK293; HEK-293, MTT test. As for the experimental part: The effect of the hydroxamic acids on the viability of cells obtained from human embryonic kidneys, HEK 293, as well as the native form of human neuroblastoma, SH-SY5Y, was evaluated in the MTT test. Using a multifunctional flatbed analyzer, Cytation™3 (BioTek Instruments, Inc., Winooski, VT, USA), the optical density was determined at a wavelength of 530 nm. Based on the dose-dependent curves, the concentration values leading to 50% inhibition of cell population growth (IC50) were calculated.
Due to the fact that most compounds of the class of hydroxamic acids have high cytotoxic activity and are mainly used as anticancer drugs, their use as neuroprotective drugs is limited. Since the goal of our work was to search for agents for the pharmacological correction of neurodegenerative diseases, a necessary part of the biological activity study of the synthesized hydroxamic acids was to determine their effect on the survival of cell cultures. In our work, we used neuron-like neuroblastoma cells SH-SY5Y and a healthy cell line isolated from the human embryonic kidney, HEK 293.
Background: Formazan colour is commonly taken as a measure of viable cells.

The test system of another assay is 5xFAD transgenic mice. Briefly: Novel Object Recognition Test in 5xFAD mice. In kind it is in vivo. The note with it: 15 mg/kg i.p. for 20 days, testing trial 24 h after familiarization. On the procedure: All animal procedures were approved by the Animal Care and Use Committee of IPAC RAS. For in vivo studies, 11-month-old male mice of the 5xFAD line (Tg(APPSwFlLon,PSEN1*M146L*L286V) 6799Vas/J) were used. The animals were housed in cages with free access to water and food in a room with a 12 h/12 h light–dark cycle, at a temperature of 23 ± 1 °C and humidity of 50 ± 5%. Before the series of experiments, animals were randomly divided into four groups (n = 8 per group): (1) wild-type group (C57BL6/j mouse line); (2) 5xFAD group; (3) 5xFAD + 15 group; and (4) 5xFAD + 25 group.
Both compounds 15 and 25 were dissolved in saline solution and DMSO (10%) immediately before use and intraperitoneally administered to animals for 20 days at a dose of 15 mg/kg body weight for experiments. In the control group, the vehicle solution (saline and DMSO (10%), intraperitoneal) was administered with the same time schedule.
The Novel Object Recognition Test assesses a mouse’s ability to remember if it has previously encountered an object or not. The same box that had been used in the open field test was used for the Novel Object Recognition Test. Mice were habituated to the box one day before the test, during the open field test. […] All trials were videotaped and analyzed with a computer-operated EthoVision XT system (Noldus, Wageningen, the Netherlands). […]

A value given as a limit tells only on which side of the number the result lay.

As a reminder, the IC50 is the point on the concentration scale where inhibition reaches its midpoint. `O=C(CCCCCCC(=O)NC1C2CC3CC(C2)CC1C3)NO` (stereo not drawn) [compound 15, N^1-(Adamant-2-yl)-N^8-Hydroxyoctanediamide]: in assay [1], the “% of Activity, Inhibition of LPO, Fe (II)” value was determined as 21.52 ± 2.15% and the “% of Activity, Inhibition of LPO, t-BHP” value turned out to be 43.24 ± 1.28%. Also, the “Effect on β-amyloid 1–40 aggregation” value in the assay with β-amyloid 1–40 is reported as “noticeable fibrillation inhibition”. Besides, the “Effect on β-amyloid 1–42 aggregation” value in the assay on β-amyloid 1–42 is listed as “noticeable fibrillation inhibition”. The compound also had an IC50 in the assay with HEK 293 cells of over 100 µM. In addition, the “Novel object preference (episodic memory)” value in the assay on 5xFAD transgenic mice was “significantly showed a strong preference and spent more time studying a new object”.

Take `O=C(/C=C/c1ccc(C(=O)NO)cc1)NC1C2CC3CC(C2)CC1C3` (stereo not drawn) [compound 25, 4-((E)-3-((-Adamantan-2-yl)amino)-3-Oxoprop-1-en-1-yl)-N-Hydroxybenzamide]: in assay [1], the “% of Activity, Inhibition of LPO, Fe (II)” value is 19.81 ± 4.83% and the “% of Activity, Inhibition of LPO, t-BHP” value came out at 44.59 ± 1.73%. For the same compound, the “Effect on β-amyloid 1–40 aggregation” value in the assay on β-amyloid 1–40 is given as “noticeable fibrillation inhibition”. Besides, the “Effect on β-amyloid 1–42 aggregation” value in the assay with β-amyloid 1–42 is “noticeable fibrillation inhibition”. In the assay with HEK 293 cells, this compound returned an IC50 of over 100 µM. Also, the “Novel object preference (episodic memory)” value with 5xFAD transgenic mice is listed as “began to show memory impairment when presented with a new object”.

For the origin of these results see publication PMC8623418, “Novel Multitarget Hydroxamic Acids with a Natural Origin CAP Group against Alzheimer’s Disease: Synthesis, Docking and Biological Evaluation” (Pharmaceutics, 2021).
